Legend:
[1] = tested on: UGN; experiment: ELISA detection of serum UGN in rats; format: in vivo; details: P<0.05
Protocol: Serum preparation: mice were placed at room temperature for 2 hours or 4° C. overnight after eye vein blood collection, and centrifuged at 1000× g for 15 minutes at 2-8° C.; the supernatant can be taken for immediate detection; or subpackaged, and the specimens were stored at −20° C. or −80° C., but repeated freezing and thawing should be avoided. Thawed samples should be centrifuged again prior to detecting.
The serum sample diluent was diluted 1:200 times and then tested. The specific operation was as follows: 5 μl of the sample was added to 45 μl of the sample diluent (1:10 dilution) and mixed. Then 15 μl of the above diluent was added to the 285 μl sample diluent (1:20 dilution) and mixed. The sample obtained after the completion of the second step was 1:200 times dilution. The sample incubation, primary antibody, horseradish peroxidase labeled avidin working solution, color development, termination and enzyme labeling detection were carried out in turn.

[2] = tested on: A. muciniphila; experiment: qPCR of relative abundance of A. muciniphila in intestinal flora of SPF mice; format: in vivo; details: p<0.05
Protocol: In order to verify the changes in the relative abundance of A.muciniphila in the intestinal flora of mice fed with other HD, qPCR experiments were performed on the changes of intestinal flora in mice. Faecal bacterial DNA was extracted from the faeces of mice in the NC, HFD, D1, D2, D3, D5, D7, D8, D9 and D10 groups collected in the pre-SPF mice experiments and then the relative abundance of A. muciniphila was determined using qPCR.

[3] = Rat feeding experiment (high-fat diet); format: in vivo, Sprague Dawley (SD) rats; details: SD rats, 10 weeks
Protocol: Sprague Dawley (SD) rats were used in the rat experiment. At the beginning of the experiment, the rats were 4 weeks old, and each weighed 137±5 g. They were raised in a room with suitable temperature and humidity control, and the light/dark cycle was 12 hours, free diet and drinking water, and fed with standard laboratory feed (a growth and reproduction feed, SPFSLFZ003). After one week of adaptation, they were randomly assigned to a cage. HD treatment was represented by D3, a total of 3 treatments were set up, and each treatment was subjected to different feeding treatments, specifically as follows (see figure a of FIG. 7):
NC group (i.e. normal diet group): 8 rats were fed with standard laboratory feed (also known as growth and reproduction feed, SPFSLFZ003), free diet and drinking water for 10 weeks.
HFD group (i.e. high-fat diet group): 8 rats were fed with high-fat diet, the high-fat diet used was rodent feed (containing 60 kcal % fat, D12492), free diet and drinking water for 10 weeks.
D3 group (i.e. high-fat diet+D3 medicine intragastric administration group): 10 rats were fed with high-fat diet, free diet and drinking water. Intragastrically administrated with HD (choose D3), 0.5 mg-2 mg/Kg body weight, 0.5 ml, once/day for 10 weeks.
Body weights were monitored weekly. […]

[4] = tested on: Guca2b; experiment: qPCR of Guca2b mRNA in the ileum of rats; format: in vivo
Protocol: (§1) qPCR gene expression was carried out using the StepOnePlus real-time fluorescent quantitative PCR system. Three technical replicates were performed for each sample, and the identity and purity of the amplified product were checked by analyzing the melting curve at the end of the amplification. Gene expression results were referenced to the percent expression of each gene normalized to glyceraldehyde-3-phosphate dehydrogenase (GAPDH).

[5] = tested on: UGN; experiment: Mice ileum immunofluorescence; format: in vivo
Protocol: After the ileum was taken out, it was embedded with OCT and sliced by freezing microtome. Immunofluorescence brief steps: after the sections were washed with PBS for 3 times, 4% paraformaldehyde was added, fixed at room temperature for 10 min, and then washed with PBS for 3 times; 0.5% Triton X-100 was added, permeation at room temperature for 5 min, then washed with PBS 3 times; cell blocking solution was added and blocked at room temperature for 30 min; primary anti-UGN specific antibody (1:200) was added, 4° C. overnight and washed 3 times with PBST; the secondary antibody (1:500) was added, reacted at room temperature for 2 h, washed twice with PBST and washed once with PBS. The cells were stained with […] for additional 10 minutes at 37° C. Cleaned and sealed. Microscopic observation was recorded.

[6] = tested on: Guca2b; experiment: Ileum transcriptome sequencing and qPCR gene expression in mice; format: in vivo; details: P<0.01
Protocol: In order to find the target genes that D3 may act on, the inventors performed ileal transcriptome analysis. Three samples from each group of mice were selected as targets for transcriptome sequencing. Ileal RNA was extracted using the Trizol method and an Agilent 2100 analyser was required to detect the RNA quality above 7 for RNA library construction. After passing the sample test, 2 μg of total RNA was taken from each sample to construct a transcriptome sequencing library. After data acquisition, the RNA-seq data was first de-redundantly removed using Trim galore v0.4.4 to remove junctions and low quality sequences. Using GRCm38 as the mice reference genome, HISAT2 v2.0.5 and StringTie v1.3.4 were used to quantify the abundance of each gene. Differential expression analysis was performed using DESeq2 v1.24.0.
as §1

[7] = Macaque experiment (high-fat diet); format: in vivo; details: rhesus monkeys, high-fat diet (45 kcal % fat), intragastric 0.5 mg-1 mg/Kg once/day, after 6 weeks
Protocol: Rhesus monkeys were used in the macaque experiment. 9 in total, […] at the beginning of the experiment, and each weighed 2.5±0.5 Kg. They were raised individually in the same environment, in a room with suitable temperature and humidity control, and the light/dark cycle was 12 hours, free diet and drinking water, and fed with standard laboratory feed (#2150230401). After 7 days of adaptation, they were randomly assigned to 3 groups with 3 animals in each group, and each group was subjected to different feeding treatments, specifically as follows (see figure e of FIG. 7):
NC group (i.e. normal diet group): fed with standard laboratory feed (#2150230401), free diet and drinking water for 6 weeks.
HFD group (i.e. high-fat diet group): fed with high-fat diet (45 kcal % fat), free diet and drinking water for 6 weeks.
D3 group (i.e. high-fat diet+D3 medicine intragastric administration group): fed with high-fat diet (45 kcal % fat), free diet and drinking water for 6 weeks. HD medicines were selected as D3, intragastrically administrated with D3, 0.5 mg-1 mg/Kg body weight, and intragastrically administrated according to 1.7 ml/Kg body weight, once/day.
Food intake (unit: g/only/week) and body weight were monitored weekly. Fresh excreta of the above animals were collected and stored at −80° C. for further analysis of macaque fecal flora (method as above).

## RTRYCRTGR [D3]
[1]
  level of Guca2b in rat serum: significantly increased
[2]
  relative abundance of A. muciniphila in the intestinal flora by qPCR: significantly increased
[3]; vs HFD group
  decrease of growth rate of body weight: 8.96±3.11%
[3]; intragastric 0.5 mg-2 mg/Kg once/day
  body weight compared with the HFD group: significantly lower than that of the HFD group
[4]
  mRNA level of UGN in the ileum: increased significantly
[5]
  fluorescence intensity of UGN in ileal cells: significantly increased
[6]; GF mice
  expression of UGN (Guca2b) in the ileum: significantly up-regulated
[6]; SPF mice
  expression of UGN (Guca2b) in the ileum: significantly up-regulated
[7]
  growth rate of body weight: decreased significantly
